# Test results reported in US4632905A, “Microbial sulfhydryl oxidase” (Novo Laboratories, Inc., priority 1985, dated 1986).
# Several values for one entry are separate records, joined by “and”; a condition that tells them apart may be missing. Identical values can stand only once.
# Experiments:
# Assay type in all cases: biochemical
# [1] = test system: Aspergillus sojae SOX; experiment: Substrate specificity of SOX toward low MW thiol compounds, polarographic (oxygen consumption); conditions: 1 mM test compound, 227 μM oxygen, 50 mM potassium phosphate pH 6.7, 30° C., corrected for auto-oxidation
# Description: SOX activity may be ascertained by two methods. The activity may be determined by measuring the oxygen consumed when a suitable substrate, e.g., reduced glutathione, is oxidized enzymatically to the corresponding disulfide. The stoichiometry involved is according to the equations 1 and 2 below, namely, 1/2 oxygen consumed per disulfide formed, when the reaction is carried out in the presence of catalase activity.
# The assay employs oxygen electrode techniques and is used with low MW compounds as substrates.
# The ability of low MW thiol-containing compounds to serve as substrates for SOX was determined polarographically at 30° C., pH 6.7. […] Protein specificity was determined with proteins in their reductively denatured state. Reductive denaturation is accomplished by submitting the protein to a denaturant e.g., urea and a mercaptan such as beta-mercaptoethanol at pH 8.5. Renaturation is then achieved by incubating the reduced protein with the SOX for a period of time at pH 7.0. The progress of the renaturation can easily be assessed by reaction of the protein with DTNB.
# The activity of the SOX preparation may be determined polarographically by measuring the oxygen consumed when a substrate e.g., reduced glutathione (GSH) is oxidized to the corresponding disulfide. The activity may also be determined spectrophotometrically using dithiobisnitrobenzoic acid (DTNB) which specifically reacts with a free sulfhydryl by measuring the absorption at 412 nm (ε=13.6×10^3 M^-1 cm^-1). Therefore, one unit of activity is defined as that amount of enzyme which catalyzes the consumption of 1.0 μmole of oxygen per minute or loss of 2.0 μmoles of free sulfhydryls per minute at 30° C., pH 6.7 using 1 mM GSH as substrate.
# The substrate specificity of SOX toward low MW compounds containing a free SH moiety was ascertained by polarographic methodology. The activities were measured relative to glutathione (GSH) at 30° C. in the following assay system: 1 mM test compound, 227 μM molecular oxygen, 50 mM potassium phosphate pH 6.7, and sufficient SOX to yield a linear decrease in oxygen during the first three minutes. The rates were corrected for auto-oxidation.
# [2] = test system: Aspergillus sojae SOX; experiment: Inhibition of Aspergillus sojae SOX
# [3] = test system: bovine SOX; experiment: Inhibition of bovine SOX; conditions: 1 mM concentration
compound,measurement,setting,value
"N[C@@H](CCC(=O)N[C@@H](CS)C(=O)NCC(=O)O)C(=O)O [glutathione, δ-L-glutamyl-L-cysteinyl-glycine]",% of Activity with GSH,[1],100%
"O[C@H](CS)[C@H](O)CS (racemic) [D,L--dithiothreitol, D,L-dithiothreitol]",% of Activity with GSH,[1],5.6%
same,% of Activity with GSH,"[1]; listed as D,L-dithiothreitol",3-22%
"N[C@H](CS)C(=O)O [D--cysteine, D-cysteine]",% of Activity with GSH,[1],4.1%
same,% of Activity with GSH,[1]; listed as D-cysteine,3-22%
O=S(=O)([O-])[O-].[Zn+2] [ZnSO4],Inhibition of microbial SOX,[2]; 1 mM concentration,partially inhibited
same,Inhibition of bovine SOX,[3],non-inhibitory
OCCS [beta-mercaptoethanol],% of Activity with GSH,[1],3-22% and 4.2%
"CCOC(=O)[C@@H](N)CS [L--cysteine, ethyl ester, L-cysteine ethyl ester]",% of Activity with GSH,[1],21.8%
same,% of Activity with GSH,[1]; listed as L-cysteine ethyl ester,3-22%
O=C(O)CN(CCN(CC(=O)O)CC(=O)O)CC(=O)O [EDTA],Inhibition of Aspergillus sojae SOX,[2]; concentration not printed for this enzyme,not inhibited
same,Inhibition of bovine SOX,[3],almost completely
"CC(=O)N[C@@H](CS)C(=O)O [N--acetyl-L--cysteine, N-acetyl-L-cysteine]",% of Activity with GSH,[1],3.0%
same,% of Activity with GSH,[1]; listed as N-acetyl-L-cysteine,3-22%
"O[C@H](CS)[C@@H](O)CS [dithioerythreitol, D,L-dithioerythreitol]",% of Activity with GSH,[1],6.6%
same,% of Activity with GSH,"[1]; listed as D,L-dithioerythreitol",3-22%
"N[C@@H](CS)C(=O)O [L--cysteine, L-Cysteine]",% of Activity with GSH,[1],8.7%
same,% of Activity with GSH,[1]; listed as L-Cysteine,3-22%
